Consider three compounds from PMC3591361 (PLoS ONE, 2013).

One data set is described as follows: in vivo. Set-up: species or system mice. Particulars: i.v.; for half-life: female, athymic nude (nu/nu), mouse, iv, read-out: t1/2 (elimination half-life); for plasma concentration at 4 h: free drug administration (combined free drugs in DMSO). The method, then: Human ovarian cancer SKOV-3 cells (2 x 10^6 in 0.1 ml matrigel/DMEM mixture) were implanted subcutaneously in each flank of 5–6 week-old female athymic nude mice (nu/nu, Charles River, Wilmington, MA). The tumor size was measured using a caliper, and the tumor volume was calculated as ½ × length × width^2.
Once SKOV-3 tumor volumes reached 100–300 mm^3, the mice were randomized into study groups (4 mice per group). […] At 5, 10, 15, 30, 60, 120 and 240 min post injection, whole blood was collected via the retro-orbital bleeding. Normal organs (liver, lung, spleen, kidney and heart) and tumor tissues were harvested at 120 min. […] The HPLC system (Waters, Milford, MA) consisted of a Waters 2795 pump, a Phenomenex (Torrance, CA) C8 column (5 µm, i.d. 4.6 mm × 150 mm) and a Waters 996 photodiode array detector. α-Naphthoflavone was used as an internal standard. […] For tissue homogenate samples, a gradient elution of A: sodium phosphate buffer and B: methanol (0–30 min 46% A, 30.01–40 min 28% A, 40.01–45 min 46% A) was used. The flow rate was 1.5 ml/min at 40°C. The assay methodology was established using blank plasma and tissue homogenate samples spiked with known drug concentrations. […] Representative chromatograms of the pure drugs, an extract of drug-spiked liver tissue, and an extract of blank liver tissue at 227, 333 and 281 nm are shown in Fig. 2.

The conditions of data set [1]: combination therapy; weekly i.v. infusion for paclitaxel, twice-weekly i.v. infusion for 17-AAG; cited from earlier work.
Data set [2] can be described thus: In vivo whole-body NIR fluorescence imaging in SKOV-3 tumor-bearing mice. Particulars: i.v., ICG dose 2 mg/kg, 800 nm channel. As to the method:
ICG-labeled micelles were administered to SKOV-3 tumor-bearing mice via the tail vein injection at an ICG dose of 2 mg/kg. Freshly prepared free ICG solution in HBS was i.v. injected at the same dose to the control mice. Immediately following the injection (0 h) and at 1, 2, 4, 6, 24 and 48 h, the mice were anesthetized under a continuous flow of isoflurane/oxygen, and the spectral fluorescence signals of the whole body images (800 nm channel) were obtained using the Odyssey imaging system.

Data set [3] is described as follows: Stability of ICG fluorescence in HBS at 37°C. Type of data set: physicochemical. The method, then:
To confirm the incorporation of ICG into the micelles, the stability of ICG-labeled micelles was studied at 37°C. Freshly prepared free ICG solution in HBS at the identical concentration was used as a control. At 0, 2, 4, 8, 24 and 48 h, aliquots of the micellar or free ICG solution were analyzed for the fluorescence intensity at 800 nm using Odyssey imaging system (LI-COR Biosciences, Lincoln, NE). All samples were prepared and analyzed in triplicates.

The conditions of data set [4]: free drug; stated without reference; cited from earlier work.
Setting [5] is: plasma, combined free drugs in DMSO, 20 mg/kg paclitaxel + 37.5 mg/kg 17-AAG, plasma, mean ± SD, n = 4.

Converted amounts (≈) assume the structure as drawn.

Turning to `CC(=O)O[C@H]1C(=O)[C@@]2(C)[C@H]([C@H](OC(=O)c3ccccc3)[C@]3(O)C[C@H](OC(=O)[C@H](O)[C@@H](NC(=O)c4ccccc4)c4ccccc4)C(C)=C1C3(C)C)[C@]1(OC(C)=O)CO[C@@H]1C[C@@H]2O` [paclitaxel, Paclitaxel], the AUC in “in vivo” (combined free drugs in DMSO, 20 mg/kg paclitaxel + 37.5 mg/kg 17-AAG, plasma, mean ± SD, n = 4) is given as 415.3±56.7 uM⋅min. In addition, the half-life in the data set “in vivo” (setting [5]) is about 40 min. The “plasma concentration at 4 h” value in “in vivo” is “below the detection limit”. The “maximum tolerated dose in cancer patients” value in data set [1] is recorded as 80 mg/m^2.

In the case of `CC1(C)C(/C=C/C=C/C=C/C=C2\N(CCCCS(=O)(=O)O)c3ccc4ccccc4c3C2(C)C)=[N+](CCCCS(=O)(=O)[O-])c2ccc3ccccc3c21` [ICG, indocyanine green], in data set [2], the “clearance of fluorescence signal from the circulation/body” value was “rapidly cleared from the circulation”. For the same compound, the “decrease in fluorescence emission intensity” value is listed as “about 50%” in data set [3] (8 h) and “over 80%” in data set [3] (48 h).

What is called aqueous solubility is the concentration that dissolves in the medium under given conditions. Take `C=CCNC1=C2C[C@@H](C)C[C@H](OC)[C@H](O)[C@@H](C)/C=C(\C)[C@H](OC(N)=O)[C@@H](OC)/C=C\C=C(/C)C(=O)NC(=CC1=O)C2=O` [17-AAG, Tanespimycin]: the half-life in the data set “in vivo” (setting [5]) was 20.3 ± 2.5 min. Besides, in the data set “in vivo”, the “plasma concentration at 4 h” value is “below the detection limit”. In data set [1], the “maximum tolerated dose in cancer patients” value was 175 mg/m^2. For the same compound, the aqueous solubility in data set [4] is recorded as 17 µM (≈ 9.96 µg/mL).
